{
  "source": "patent US20100323894A1",
  "about": "“HERBICIDAL COMBINATION” (Bayer CropScience AG, priority 2007, published 2010)",
  "key": {"Polygonum convolvulus": {"test_system": "Polygonum convolvulus", "experiment": "Post-emergence action against weeds, greenhouse, visual scoring", "format": "in vivo", "conditions": "scoring 11 days after application", "experimental": "(§1) Seeds or rhizome pieces of monocotyledonous and dicotyledonous weeds were placed in sandy loam soil in plastic pots, covered with soil and cultivated in a greenhouse under good growth conditions. Three weeks after sowing, the test plants were treated at the 2- to 4-leaf stage. The compounds according to the invention, formulated as wettable powders or as emulsion concentrates, were sprayed onto the green parts of the plants in various dosages at a water application rate of 100 to 800 l/ha (converted). After the test plants had been left to stand in the greenhouse for 10 to 28 days under optimum growth conditions, the effect of the preparations was scored visually in comparison to untreated controls.\n0%=no control 100%=complete control"}, "Galium aparine": {"test_system": "Galium aparine", "experiment": "Post-emergence action against weeds, greenhouse, visual scoring", "format": "in vivo", "conditions": "scoring 11 days after application, 0=no control, 100=complete control", "experimental": "as §1\n0=no control 100=complete control"}},
  "data": [
    {"compound": "Cc1nn(C)c(O)c1C(=O)c1ccc(C(F)(F)F)cc1S(C)(=O)=O", "note": "[Compound B1-6, pyrasulfotole]", "values": [
      {"measurement": "Polygonum convolvulus Control in %", "setting": "Polygonum convolvulus; 25 g of ai/ha, 0%=no control, 100%=complete control", "value": 20, "unit": "%"}
    ]},
    {"compound": "CCOC(=O)COc1cc(-c2nn(C)c(OC(F)F)c2Cl)c(F)cc1Cl", "note": "[Compound B2-1, pyraflufen-ethyl]", "values": [
      {"measurement": "Galium aparine Control in %", "setting": "Galium aparine; 2 g of ai/ha", "value": 23, "unit": "%"}
    ]},
    {"compound": "CS(=O)(=O)c1cc(C(F)(F)F)ccc1C(=O)c1cnoc1C1CC1", "note": "[Compound B3-3, isoxaflutole]", "values": [
      {"measurement": "Polygonum convolvulus Control in %", "setting": "Polygonum convolvulus; 50 g of ai/ha, 0=no control, 100=complete control", "value": 25, "unit": "%"}
    ]},
    {"compound": "COCc1cnc(C2=NC(C)(C(C)C)C(=O)N2)c(C(=O)O)c1", "note": "(centres unmarked) [Compound B4-2, imazamox]", "values": [
      {"measurement": "Galium aparine Control in %", "setting": "Galium aparine; 10 g of ai/ha", "value": 75, "unit": "%"}
    ]},
    {"compound": "CCN(C(=O)n1nnn(-c2ccccc2Cl)c1=O)C1CCCCC1", "note": "[Compound B8-1, fentrazamide]", "values": [
      {"measurement": "Polygonum convolvulus Control in %", "setting": "Polygonum convolvulus; 250 g of ai/ha, 0%=no control, 100%=complete control", "value": 20, "unit": "%"}
    ]},
    {"compound": "CCc1cc(C)cc(CC)c1-c1c(OC(=O)C(C)(C)C)n2n(c1=O)CCOCC2", "note": "[Compound B9-1, pinoxaden]", "values": [
      {"measurement": "Polygonum convolvulus Control in %", "setting": "Polygonum convolvulus; 15 g of ai/ha, 0=no control, 100=complete control", "value": 20, "unit": "%"}
    ]},
    {"compound": "sodium salt of 2-iodo-N-[(4-methoxy-6-methyl-1,3,5-triazin-2-yl)carbamoyl]benzenesulfonamide [Compound A-2]", "values": [
      {"measurement": "Galium aparine Control in %", "setting": "Galium aparine; 2.5 g of ai/ha", "value": 0, "unit": "%"},
      {"measurement": "Polygonum convolvulus Control in %", "setting": "Polygonum convolvulus; 2.5 g of ai/ha, 0%=no control, 100%=complete control", "value": 10, "unit": "%"}
    ]}
  ]
}
